Results from paper PMC6268492, “Synthesis and Antiangiogenic Activity of Novel Gambogic Acid Derivatives” (Molecules, 2012).
Read-outs that look alike come from different tables or passages of the source.

How the values were obtained:
[1] = system: transgenic fli-1: enhanced GFP zebrafish embryos; test: Zebrafish embryo assay: antiangiogenic effects; assay type: in vivo, zebrafish (Danio rerio); details: for antiangiogenic rates / inhibition in vivo at 1 µM: 1 μM
Description: As stated previously, zebrafish is regarded as a powerful tool in the study of human diseases. […] In this study, all GA derivatives were incubated with the transgenic friend leukemia integration-1 (fli-1): enhanced GFP zebrafish embryos which carried a fli-1 promoter which can drive the expression of GFP in the whole endothelium.
Figure 1 Effects on neovascularization in zebrafish embryos. The transgenic fli-1: enhanced GFP zebrafish embryos in embryo water (0.2 g/L of instant ocean salt in distilled water) incubated with 1 μM of compounds at 6 h postfertilization (hpf) for 24 h. Zebrafish embryos were imaged (Imager.Z1, magnification: left, 40×; right, 100×).
Using transgenic fli-1: enhanced GFP zebrafish embryos, we investigated the effects of all compounds on angiogenesis. […] At about 6 h post fertilization (hpf), the embryos were sorted in the 6-well plate (six embryos/well), removing dead and unhealthy embryos. Then the embryos were treated with the indicated concentrations of compounds which were added into embryo water. After incubation for 24 or 48 h, the embryos were anesthetized using 0.05% 2-phenoxyethanol in embryo water, quantified and photographed.

A549 = test: MTT assay, cell proliferation; assay type: cell-based; details: Homo sapiens, 24 h, read-out: IC50, inhibition of cell proliferation
Description: (§1) HepG2, HCT116, HeLa and LO2 cell lines were cultured in DMEM containing 10% fetal bovine serum (FBS), 100 IU/mL penicillin and 100 µg/mL streptomycin; A549 and K562 cell lines were cultured in RPMI 1640 medium containing 10% fetal bovine serum (FBS), 100 IU/mL penicillin and 100 µg/mL streptomycin; Human umbilical vein endothelial cells (HUVECs) were cultured on gelatin-coated culture flasks in M-199 medium with 20% fetal bovine serum (FBS), 2 ng/mL VEGF, 10 ng/mL basic FGF, 100 IU/mL penicillin, and 100 μg/mL streptomycin; all of them were obtained from the American Type Culture Collection (ATCC) and all cell lines were incubated in an atmosphere of 5% CO2 at 37 °C.
(§2) Cells were treated with various concentrations of compound in 96-well culture plates for 24 h in final volumes of 200 μL (5 × 10^3 cells/well). Then 20 μL of MTT solution (5 mg/mL) was added to each well, and cells were incubated for an additional 3 h. Then the medium was carefully removed, and precipitates were dissolved in 150 μL of DMSO, shaken mechanically for 30 min, and then absorbance values at a wavelength of 570 nm were taken on a spectrophotometer (Molecular Devices, Sunnyvale, CA, USA). Values were calculated using percentage of growth versus untreated control. The IC50 was defined as the concentration that caused 50% inhibition of cell proliferation, and was calculated by SAS statistical software.

HCT116 = test: MTT assay, cell proliferation; assay type: cell-based; details: Homo sapiens, HCT-116, 24 h, read-out: IC50, inhibition of cell proliferation
Description: as §1, §2

HeLa = test: MTT assay, cell proliferation; assay type: cell-based; details: Homo sapiens, 24 h, read-out: IC50, inhibition of cell proliferation
Description: as §1, §2

HepG2 = test: MTT assay, cell proliferation; assay type: cell-based; details: Homo sapiens, 24 h, read-out: IC50, inhibition of cell proliferation
Description: as §1, §2

K562 = test: MTT assay, cell proliferation; assay type: cell-based; details: Homo sapiens, 24 h, read-out: IC50, inhibition of cell proliferation
Description: as §1, §2

HUVEC = test: MTT assay, cell proliferation; assay type: cell-based, Human; details: Homo sapiens, 24 h, read-out: IC50, inhibition of cell proliferation
Description: Inhibiting the proliferation of ECs is another important strategy for antiangiogenesis. […] As the exposure time of these derivatives was 24 h in the migration assay and 6 h in the tube formation assay, the effect of the incubation for 24 h in the presence of these compounds on HUVECs proliferation was then tested. Cell viability was assessed by the MTT method. We can see from Table 4 that these compounds had different antiproliferative activities.
as §1, §2

LO2 = test: MTT assay, cytotoxicity; assay type: cell-based; details: Homo sapiens, L02, 24 h, read-out: IC50, inhibition of cell proliferation
Description: as §1, §2

[2] = Danio rerio, zebrafish embryos, vs vehicle (0.05% DMSO), read-out: Anti-angiogenic phenotype

COc1ccc(OC(=O)/C(C)=C\CC23OC(C)(C)C4CC(C=C5C(=O)c6c(O)c7c(c(CC=C(C)C)c6OC542)OC(C)(CCC=C(C)C)C=C7)C3=O)cc1Br (centres unmarked) [Compound 22, 2-Bromo-4-methoxyphenyl gambogate]
antiangiogenic rates ([1]; zebrafish embryos): inactive
inhibition in vivo at 10 µM [1, 2]: 25 to 50%
IC50 (A549): > 80 µM
IC50 (HCT116): 36.9 ± 0.64 µM
IC50 (HeLa): > 80 µM
IC50 (HepG2): 63.2 ± 3.88 µM
IC50 (K562): 36.9 ± 0.56 µM
IC50 (HUVEC): 51.3 ± 1.1 µM
IC50 (LO2): > 80 µM

CC(C)=CCCC1(C)C=Cc2c(O)c3c(c(CC=C(C)C)c2O1)OC12C(=CC4CC1C(C)(C)OC2(C/C=C(/C)C(=O)Oc1ccc(C=O)cc1)C4=O)C3=O (centres unmarked) [Compound 20, 4-Formylphenyl gambogate]
antiangiogenic rates ([1]; zebrafish embryos): inactive
inhibition in vivo at 10 µM [1, 2]: 25 to 50%
IC50 (A549): 31.2 ± 2.29 µM
IC50 (HCT116): 7.9 ± 0.14 µM
IC50 (HeLa): 24.3 ± 2.13 µM
IC50 (HepG2): 5.86 ± 0.4 µM
IC50 (K562): 4.52 ± 0.43 µM
IC50 (HUVEC): 7.7 ± 0.32 µM
IC50 (LO2): 9.92 ± 0.52 µM

CC(C)=CCCC1(C)C=Cc2c(O)c3c(c(CC=C(C)C)c2O1)OC12C(=CC4CC1C(C)(C)OC2(C/C=C(/C)C(=O)Oc1ccccc1Br)C4=O)C3=O (centres unmarked) [Compound 17, 2-Bromophenyl gambogate]
IC50 (A549): > 80 µM
IC50 (HCT116): 33 ± 1.27 µM
IC50 (HeLa): > 80 µM
IC50 (HepG2): 61.9 ± 2.69 µM
IC50 (K562): 27 ± 1.41 µM
IC50 (HUVEC): 29.9 ± 1.44 µM
IC50 (LO2): 72.8 ± 2.84 µM

CC(C)=CCCC1(C)C=Cc2c(O)c3c(c(CC=C(C)C)c2O1)OC12C(=CC4CC1C(C)(C)OC2(C/C=C(/C)C(=O)Oc1ccc(C(=O)CBr)cc1)C4=O)C3=O (centres unmarked) [Compound 16, 4-(2-Bromoacetyl)phenyl gambogate]
antiangiogenic rates ([1]; zebrafish embryos): inactive
inhibition in vivo at 10 µM [1, 2]: 25 to 50%
IC50 (A549): > 80 µM
IC50 (HCT116): 5.08 ± 0.77 µM
IC50 (HeLa): 8.98 ± 0.58 µM
IC50 (HepG2): 4.51 ± 0.29 µM
IC50 (K562): 3.46 ± 0.34 µM
IC50 (HUVEC): 11.9 ± 1.36 µM
IC50 (LO2): 5.25 ± 0.51 µM

CC(C)=CCCC1(C)C=Cc2c(O)c3c(c(CC=C(C)C)c2O1)OC12C(=CC4CC1C(C)(C)OC2(C/C=C(/C)C(=O)Oc1ccc(NC(=O)CCCl)cc1)C4=O)C3=O (centres unmarked) [Compound 9, 3-Chloro-N-(4-phenylgambogate)propanamide]
antiangiogenic activities ([1]; 2.5 μM, not enhanced greatly at 10 μM): moderate
inhibition in vivo at 1 µM ([1]; Danio rerio, zebrafish embryos, read-out: antiangiogenic rates): < 25%
inhibition in vivo at 1 µM [1, 2]: < 25%
inhibition in vivo at 2.5 µM ([1]; Danio rerio, 2.5 μM, zebrafish embryos, vs vehicle (0.05% DMSO), read-out: Anti-angiogenic phenotype): 25 to 50%
inhibition in vivo at 10 µM [1, 2]: 25 to 50%
IC50 (A549): 3.75 ± 0.35 µM
IC50 (HCT116): 2.05 ± 0.41 µM
IC50 (HeLa): 3.42 ± 0.19 µM
IC50 (HepG2): 5.16 ± 0.55 µM
IC50 (K562): 1.14 ± 0.03 µM
IC50 (HUVEC): 4.27 ± 0.25 µM
IC50 (LO2): 1 ± 0.1 µM

CC(C)=CCCC1(C)C=Cc2c(O)c3c(c(CC=C(C)C)c2O1)OC12C(=CC4CC1C(C)(C)OC2(C/C=C(/C)C(=O)n1cccn1)C4=O)C3=O (centres unmarked) [Compound 33, 1-Gambogyl pyrazole]
IC50 (A549): 1.3 ± 0.08 µM
IC50 (HCT116): 1.2 ± 0.09 µM
IC50 (HeLa): 4.23 ± 0.39 µM
IC50 (HepG2): 1 ± 0.06 µM
IC50 (K562): 0.53 ± 0.05 µM
IC50 (HUVEC): 0.57 ± 0.03 µM
IC50 (LO2): 1.75 ± 0.09 µM
